# Test results: patent publication US10724099B2, “Multiplex methods to assay mixed cell populations simultaneously” (The Broad Institute, Inc., priority 2012, dated 2020)
# Key:
# MAPKAPK2 = target: T1, MAPKAPK2 (Homo sapiens, UniProt P49137); experiment: DiscoveRx KinomeScan binding
# T1 construct: purchased DiscoveRx scanEDGE panel (KinomeScan)
# EPHA2 = target: T2, EPHA2 (Homo sapiens, UniProt P29317); experiment: DiscoveRx KinomeScan binding
# T2 construct: purchased DiscoveRx scanEDGE panel
# T2 sequence (P29317 24-976): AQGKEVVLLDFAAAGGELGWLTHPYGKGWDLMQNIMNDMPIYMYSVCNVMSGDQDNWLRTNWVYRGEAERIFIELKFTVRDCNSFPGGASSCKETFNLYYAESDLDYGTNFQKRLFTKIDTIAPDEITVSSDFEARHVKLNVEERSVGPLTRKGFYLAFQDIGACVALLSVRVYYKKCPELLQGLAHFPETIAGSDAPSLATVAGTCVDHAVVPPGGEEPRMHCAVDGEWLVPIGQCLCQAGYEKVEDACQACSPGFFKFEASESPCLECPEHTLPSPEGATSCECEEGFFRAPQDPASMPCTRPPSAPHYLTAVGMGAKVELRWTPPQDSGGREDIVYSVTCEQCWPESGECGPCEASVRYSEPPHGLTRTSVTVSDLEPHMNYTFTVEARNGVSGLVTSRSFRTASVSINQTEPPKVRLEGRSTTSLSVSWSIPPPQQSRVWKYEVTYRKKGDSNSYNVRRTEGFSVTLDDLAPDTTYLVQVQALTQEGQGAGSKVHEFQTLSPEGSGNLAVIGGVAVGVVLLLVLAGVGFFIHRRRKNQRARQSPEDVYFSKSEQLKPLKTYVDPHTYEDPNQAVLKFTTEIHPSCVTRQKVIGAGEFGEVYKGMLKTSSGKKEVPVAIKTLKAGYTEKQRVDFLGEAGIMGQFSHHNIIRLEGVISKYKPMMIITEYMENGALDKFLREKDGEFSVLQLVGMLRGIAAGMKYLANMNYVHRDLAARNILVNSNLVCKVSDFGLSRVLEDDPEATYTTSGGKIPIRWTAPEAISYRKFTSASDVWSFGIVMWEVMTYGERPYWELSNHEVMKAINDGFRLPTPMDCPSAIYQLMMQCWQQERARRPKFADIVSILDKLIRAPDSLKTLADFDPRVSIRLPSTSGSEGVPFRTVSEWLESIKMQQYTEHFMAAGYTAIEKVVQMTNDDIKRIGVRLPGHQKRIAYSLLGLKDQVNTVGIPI
# PIM2 = target: T3, PIM2 (Homo sapiens, UniProt Q9P1W9); experiment: DiscoveRx KinomeScan binding
# T3 construct: purchased DiscoveRx scanEDGE panel
# T3 sequence (Q9P1W9 whole entry): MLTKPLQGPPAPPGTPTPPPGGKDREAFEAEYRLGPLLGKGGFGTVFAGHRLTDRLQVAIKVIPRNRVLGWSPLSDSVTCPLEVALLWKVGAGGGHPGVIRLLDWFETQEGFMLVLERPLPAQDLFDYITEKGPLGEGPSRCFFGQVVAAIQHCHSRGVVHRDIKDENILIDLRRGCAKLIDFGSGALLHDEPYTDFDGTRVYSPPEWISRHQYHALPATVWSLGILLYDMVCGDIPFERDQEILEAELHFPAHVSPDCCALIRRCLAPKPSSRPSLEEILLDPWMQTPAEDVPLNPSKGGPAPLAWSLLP
# PAK2 = target: T4, PAK2 (Homo sapiens, UniProt Q13177); experiment: DiscoveRx KinomeScan binding
# T4 construct: purchased DiscoveRx scanEDGE panel (KinomeScan)
# [1] = target: T5, TYK2(JH1domain---catalytic) (Homo sapiens, UniProt P29597); experiment: DiscoveRx KinomeScan binding
# T5 construct: TYK2(JH1domain---catalytic); purchased DiscoveRx scanEDGE panel
# PRKCE = target: T6, PRKCE (Homo sapiens, UniProt Q02156); experiment: DiscoveRx KinomeScan binding
# T6 construct: purchased DiscoveRx scanEDGE panel
# PDGFRB = target: T7, PDGFRB (Homo sapiens, UniProt P09619); experiment: DiscoveRx KinomeScan binding
# T7 construct: purchased DiscoveRx scanEDGE panel (KinomeScan)
# HCT-116 cells = experiment: DNA content by propidium iodide flow cytometry; format: cell-based; conditions: 10 μM, 24 hours or 48 hours
# Experimental: In addition, HCT-116 cells were treated with 10 μM of DMSO, or the Aurora Kinase Inhibitors barasertib, GSK1070916, MLN8054, BRD-7880, or tozasertib. 24 hours or 48 hours following treatment, cells were stained with propidium iodide and DNA content per cell was assessed using a Becton Dickinson LSR II flow cytometer.
# MET = target: T8, MET (Homo sapiens, UniProt P08581); experiment: DiscoveRx KinomeScan binding
# T8 construct: purchased DiscoveRx scanEDGE panel (KinomeScan)
# p38---alpha = target: T9, p38---alpha (Homo sapiens, UniProt Q16539); experiment: DiscoveRx KinomeScan binding; conditions: Entrez MAPK14
# T9 construct: purchased DiscoveRx scanEDGE panel (KinomeScan)
# JNK3 = target: T10, JNK3 (Homo sapiens, UniProt P53779); experiment: DiscoveRx KinomeScan binding; conditions: Entrez MAPK10
# T10 construct: purchased DiscoveRx scanEDGE panel (KinomeScan)
# T10 sequence (P53779 whole entry): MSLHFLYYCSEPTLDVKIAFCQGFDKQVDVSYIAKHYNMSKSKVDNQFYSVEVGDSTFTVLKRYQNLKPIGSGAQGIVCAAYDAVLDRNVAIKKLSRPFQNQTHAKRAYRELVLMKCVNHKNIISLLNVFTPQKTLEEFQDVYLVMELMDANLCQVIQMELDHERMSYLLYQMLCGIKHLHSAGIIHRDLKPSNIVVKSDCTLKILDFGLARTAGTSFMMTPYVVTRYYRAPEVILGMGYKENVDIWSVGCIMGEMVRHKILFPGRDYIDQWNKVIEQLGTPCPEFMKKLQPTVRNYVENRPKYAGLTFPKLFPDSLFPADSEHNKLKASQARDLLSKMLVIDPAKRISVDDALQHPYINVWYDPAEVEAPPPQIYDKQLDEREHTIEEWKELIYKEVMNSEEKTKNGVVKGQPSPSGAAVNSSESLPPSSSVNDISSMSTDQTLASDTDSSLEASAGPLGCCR
# CDK9 = target: T11, CDK9 (Homo sapiens, UniProt P50750); experiment: DiscoveRx KinomeScan binding
# T11 construct: purchased DiscoveRx scanEDGE panel
# CDK11 = target: T12, CDK11 (Homo sapiens, UniProt Q9BWU1); experiment: DiscoveRx KinomeScan binding; conditions: Entrez CDK19
# T12 construct: purchased DiscoveRx (KINOMEscan scanEDGE panel)
# AKT1 = target: T13, AKT1 (Homo sapiens, UniProt P31749); experiment: DiscoveRx KinomeScan binding
# T13 construct: purchased DiscoveRx (KINOMEscan scanEDGE panel)
# IKK---alpha = target: T14, IKK---alpha (Homo sapiens, UniProt O15111); experiment: DiscoveRx KinomeScan binding; conditions: Entrez CHUK
# T14 construct: purchased DiscoveRx scanEDGE panel
# PDPK1 = target: T15, PDPK1 (Homo sapiens, UniProt O15530); experiment: DiscoveRx KinomeScan binding
# T15 construct: purchased DiscoveRx scanEDGE panel (KinomeScan)
# GSK3B = target: T16, GSK3B (Homo sapiens, UniProt P49841); experiment: DiscoveRx KinomeScan binding
# T16 construct: purchased DiscoveRx scanEDGE panel
# KIT = target: T17, KIT (Homo sapiens, UniProt P10721); experiment: DiscoveRx KinomeScan binding
# T17 construct: purchased DiscoveRx scanEDGE panel (KinomeScan)
# 102 barcoded cell lines = experiment: PRISM, 102 barcoded cell lines in pools; format: cell-based; conditions: 102 cell lines
# Description: PRISM was used to identify novel anticancer compounds, using a set of 102 barcoded cell lines including 90 non-small cell lung adenocarcinoma lines (and 2 duplicate lines with different barcode labels) and 10 remaining cell lines representing other tissues of origins.
# Using the AUC for each cell line's response to BRD-7880, a PRISM “activity profile” was created to query whether the sensitivity pattern of BRD-7880 across the cell line panel was related to any of the tool compounds assayed in parallel. […] Thus it was hypothesized that BRD-7880 was functioning as an inhibitor of aurora kinases.
# PIM1 = target: T18, PIM1 (Homo sapiens, UniProt P11309); experiment: DiscoveRx KinomeScan binding
# T18 construct: purchased DiscoveRx scanEDGE panel
# T18 sequence (P11309 whole entry): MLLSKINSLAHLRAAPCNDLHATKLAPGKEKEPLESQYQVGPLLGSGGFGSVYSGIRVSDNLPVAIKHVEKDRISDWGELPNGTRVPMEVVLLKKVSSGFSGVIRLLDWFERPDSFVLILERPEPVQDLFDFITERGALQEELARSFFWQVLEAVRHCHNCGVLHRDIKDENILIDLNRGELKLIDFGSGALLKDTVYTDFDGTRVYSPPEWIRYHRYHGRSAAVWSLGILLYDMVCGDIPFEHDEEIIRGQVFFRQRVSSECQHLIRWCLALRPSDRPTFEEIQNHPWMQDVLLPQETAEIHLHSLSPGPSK
# TGFBR1 = target: T19, TGFBR1 (Homo sapiens, UniProt P36897); experiment: DiscoveRx KinomeScan binding
# T19 construct: purchased DiscoveRx scanEDGE panel
# TRKA = target: T20, TRKA (Homo sapiens, UniProt P04629); experiment: DiscoveRx KinomeScan binding; conditions: Entrez NTRK1
# T20 construct: purchased DiscoveRx scanEDGE panel
# AURKA = target: T21, AURKA (Homo sapiens, UniProt O14965); experiment: DiscoveRx KinomeScan binding
# T21 construct: purchased DiscoveRx (KINOMEscan scanEDGE panel)
# T21 sequence (O14965 whole entry): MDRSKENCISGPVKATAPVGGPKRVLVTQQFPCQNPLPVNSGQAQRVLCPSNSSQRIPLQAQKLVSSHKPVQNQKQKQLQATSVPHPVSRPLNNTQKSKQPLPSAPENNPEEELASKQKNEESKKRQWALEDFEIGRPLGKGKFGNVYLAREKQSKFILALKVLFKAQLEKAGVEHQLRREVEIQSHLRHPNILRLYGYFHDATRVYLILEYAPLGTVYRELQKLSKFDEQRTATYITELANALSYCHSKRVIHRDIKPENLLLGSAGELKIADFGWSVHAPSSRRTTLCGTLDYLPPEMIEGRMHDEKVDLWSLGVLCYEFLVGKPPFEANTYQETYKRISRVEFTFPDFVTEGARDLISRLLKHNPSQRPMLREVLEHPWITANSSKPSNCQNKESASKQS
# CDK2 = target: T22, CDK2 (Homo sapiens, UniProt P24941); experiment: DiscoveRx KinomeScan binding
# T22 construct: purchased DiscoveRx (KINOMEscan scanEDGE panel)
# PIK3CA = target: T23, PIK3CA (Homo sapiens, UniProt P42336); experiment: DiscoveRx KinomeScan binding
# T23 construct: purchased DiscoveRx scanEDGE panel
# BMPR2 = target: T24, BMPR2 (Homo sapiens, UniProt Q13873); experiment: DiscoveRx KinomeScan binding
# T24 construct: purchased DiscoveRx (KINOMEscan scanEDGE panel)
# MARK3 = target: T25, MARK3 (Homo sapiens, UniProt P27448); experiment: DiscoveRx KinomeScan binding
# T25 construct: purchased DiscoveRx scanEDGE panel (KinomeScan)
# T25 sequence (P27448 whole entry): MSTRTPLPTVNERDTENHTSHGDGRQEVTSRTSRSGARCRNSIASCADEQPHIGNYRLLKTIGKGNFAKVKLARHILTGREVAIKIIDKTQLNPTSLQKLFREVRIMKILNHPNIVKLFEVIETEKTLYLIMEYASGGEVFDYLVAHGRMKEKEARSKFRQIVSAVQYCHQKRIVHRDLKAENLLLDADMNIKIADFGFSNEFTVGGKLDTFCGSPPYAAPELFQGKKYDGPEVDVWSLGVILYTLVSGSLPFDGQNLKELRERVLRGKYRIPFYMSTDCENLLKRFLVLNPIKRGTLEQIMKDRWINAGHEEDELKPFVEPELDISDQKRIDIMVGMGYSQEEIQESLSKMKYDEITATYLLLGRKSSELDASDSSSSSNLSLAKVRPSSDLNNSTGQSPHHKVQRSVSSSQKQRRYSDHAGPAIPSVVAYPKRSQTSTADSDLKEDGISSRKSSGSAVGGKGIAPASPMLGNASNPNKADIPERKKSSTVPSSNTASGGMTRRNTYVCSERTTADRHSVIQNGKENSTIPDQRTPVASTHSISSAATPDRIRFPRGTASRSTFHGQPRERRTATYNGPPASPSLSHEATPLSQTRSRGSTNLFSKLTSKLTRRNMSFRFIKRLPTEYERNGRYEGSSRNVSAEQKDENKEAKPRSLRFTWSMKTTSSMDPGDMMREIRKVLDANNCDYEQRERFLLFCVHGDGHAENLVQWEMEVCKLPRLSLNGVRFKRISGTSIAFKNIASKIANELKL
# PLK4 = target: T26, PLK4 (Homo sapiens, UniProt O00444); experiment: DiscoveRx KinomeScan binding
# T26 construct: purchased DiscoveRx scanEDGE panel
# T26 sequence (O00444 whole entry): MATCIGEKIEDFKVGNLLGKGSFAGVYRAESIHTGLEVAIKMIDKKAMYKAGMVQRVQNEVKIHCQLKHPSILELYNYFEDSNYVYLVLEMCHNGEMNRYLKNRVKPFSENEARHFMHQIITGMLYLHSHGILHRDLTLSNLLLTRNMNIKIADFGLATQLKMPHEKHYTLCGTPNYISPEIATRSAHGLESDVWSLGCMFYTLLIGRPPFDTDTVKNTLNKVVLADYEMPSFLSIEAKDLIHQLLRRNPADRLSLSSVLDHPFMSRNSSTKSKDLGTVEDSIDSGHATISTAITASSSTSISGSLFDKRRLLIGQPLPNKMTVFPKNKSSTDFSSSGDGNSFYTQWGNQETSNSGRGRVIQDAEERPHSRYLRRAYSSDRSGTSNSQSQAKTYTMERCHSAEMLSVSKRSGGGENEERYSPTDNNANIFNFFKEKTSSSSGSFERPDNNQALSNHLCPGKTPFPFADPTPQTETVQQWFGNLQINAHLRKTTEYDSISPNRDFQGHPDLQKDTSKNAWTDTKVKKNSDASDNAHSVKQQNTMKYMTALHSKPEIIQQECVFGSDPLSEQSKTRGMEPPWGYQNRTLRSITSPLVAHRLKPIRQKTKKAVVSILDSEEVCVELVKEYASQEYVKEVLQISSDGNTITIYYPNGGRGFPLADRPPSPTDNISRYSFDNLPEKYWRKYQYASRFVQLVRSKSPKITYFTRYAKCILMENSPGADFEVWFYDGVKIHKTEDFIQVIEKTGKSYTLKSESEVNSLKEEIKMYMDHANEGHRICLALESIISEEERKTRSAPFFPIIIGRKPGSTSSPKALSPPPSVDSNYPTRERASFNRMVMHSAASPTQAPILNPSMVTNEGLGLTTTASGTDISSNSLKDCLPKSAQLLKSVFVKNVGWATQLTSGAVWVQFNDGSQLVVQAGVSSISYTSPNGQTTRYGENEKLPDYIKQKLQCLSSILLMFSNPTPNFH
# EGFR(L858R) = target: T27, EGFR(L858R) (Homo sapiens, UniProt P00533, L858R); experiment: DiscoveRx KinomeScan binding
# T27 construct: purchased DiscoveRx scanEDGE panel
# RIOK2 = target: T28, RIOK2 (Homo sapiens, UniProt Q9BVS4); experiment: DiscoveRx KinomeScan binding
# T28 construct: purchased DiscoveRx scanEDGE panel
# ROCK2 = target: T29, ROCK2 (Homo sapiens, UniProt O75116); experiment: DiscoveRx KinomeScan binding
# T29 construct: purchased DiscoveRx scanEDGE panel
# ABL1---phosphorylated = target: T30, ABL1---phosphorylated (Homo sapiens, UniProt P00519); experiment: DiscoveRx KinomeScan binding; conditions: Entrez ABL1
# T30 construct: purchased DiscoveRx (KINOMEscan scanEDGE panel)
# p38---beta = target: T31, p38---beta (Homo sapiens, UniProt Q15759); experiment: DiscoveRx KinomeScan binding; conditions: Entrez MAPK11
# T31 construct: purchased DiscoveRx scanEDGE panel (KinomeScan)
# T31 sequence (Q15759 whole entry): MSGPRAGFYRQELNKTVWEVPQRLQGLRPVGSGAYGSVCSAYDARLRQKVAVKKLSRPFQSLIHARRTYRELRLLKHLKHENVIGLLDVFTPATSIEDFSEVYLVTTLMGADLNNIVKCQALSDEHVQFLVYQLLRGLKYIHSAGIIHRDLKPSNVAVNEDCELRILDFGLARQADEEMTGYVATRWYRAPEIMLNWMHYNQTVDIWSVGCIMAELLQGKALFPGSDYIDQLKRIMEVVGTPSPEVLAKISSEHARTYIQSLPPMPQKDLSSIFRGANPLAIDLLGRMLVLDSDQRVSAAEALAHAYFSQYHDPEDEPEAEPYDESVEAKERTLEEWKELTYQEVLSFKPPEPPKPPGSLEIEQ
# PCTK1 = target: T32, PCTK1 (Homo sapiens, UniProt Q00536); experiment: DiscoveRx KinomeScan binding; conditions: Entrez CDK16
# T32 construct: purchased DiscoveRx scanEDGE panel (KinomeScan)
# EGFR = target: T33, EGFR (Homo sapiens, UniProt P00533); experiment: DiscoveRx KinomeScan binding
# T33 construct: purchased DiscoveRx scanEDGE panel
# ERK1 = target: T34, ERK1 (Homo sapiens, UniProt P27361); experiment: DiscoveRx KinomeScan binding; conditions: Entrez MAPK3
# T34 construct: purchased DiscoveRx scanEDGE panel
# T1 sequence (P49137 whole entry): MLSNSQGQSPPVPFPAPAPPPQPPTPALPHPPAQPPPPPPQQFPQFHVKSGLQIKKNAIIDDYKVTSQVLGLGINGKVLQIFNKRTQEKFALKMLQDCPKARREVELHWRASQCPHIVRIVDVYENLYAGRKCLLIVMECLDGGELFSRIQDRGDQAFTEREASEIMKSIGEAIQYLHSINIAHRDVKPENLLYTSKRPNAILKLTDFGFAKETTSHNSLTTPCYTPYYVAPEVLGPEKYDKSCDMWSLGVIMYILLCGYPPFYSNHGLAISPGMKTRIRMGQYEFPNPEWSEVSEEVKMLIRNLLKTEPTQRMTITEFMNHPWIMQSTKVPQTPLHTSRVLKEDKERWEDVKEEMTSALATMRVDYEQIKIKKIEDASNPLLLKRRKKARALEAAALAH
smiles,measurement,setting,value
COc1ccc(NC(=O)Nc2ccc3c(c2)C(=O)N([C@@H](C)CO)C[C@H](C)[C@H](CN(C)Cc2ccc4c(c2)OCO4)O3)cc1 [BRD-7880],Percent Control,MAPKAPK2,80%
same,Percent Control,EPHA2,86%
same,Percent Control,PIM2,85%
same,Percent Control,PAK2,69%
same,Percent Control,[1],87%
same,Percent Control,PRKCE,100%
same,Percent Control,PDGFRB,100%
same,DNA content per cell,HCT-116 cells,increased DNA content
same,Percent Control,MET,100%
same,Percent Control,p38---alpha,93%
same,Percent Control,JNK3,70%
same,Percent Control,CDK9,90%
same,Percent Control,CDK11,43%
same,Percent Control,AKT1,87%
same,Percent Control,IKK---alpha,58%
same,Percent Control,PDPK1,48%
same,Percent Control,GSK3B,94%
same,Percent Control,KIT,77%
same,cell lines with AUC<0.5 (selectivity),102 barcoded cell lines; 8 doses 0.25-32 μM,12 of 102
same,EC50,102 barcoded cell lines,~1 µM
same,Percent Control,PIM1,87%
same,Percent Control,TGFBR1,100%
same,Percent Control,TRKA,84%
same,binding to aurora kinase A,AURKA,25 % of control
same,Percent Control,AURKA; AURKA,22%
same,Percent Control,CDK2,100%
same,Percent Control,PIK3CA,74%
same,Percent Control,BMPR2,100%
same,Percent Control,MARK3,100%
same,Percent Control,PLK4,61%
same,Percent Control,EGFR(L858R),60%
same,Percent Control,RIOK2,38%
same,Percent Control,ROCK2,100%
same,Percent Control,ABL1---phosphorylated,88%
same,Percent Control,p38---beta,87%
same,Percent Control,PCTK1,95%
same,Percent Control,EGFR,66%
same,Percent Control,ERK1,92%
